Reference: ChEMBL document CHEMBL1201862, “PubChem BioAssay data set” (2004)
Calls of active or inactive are those of the source.

Assays:
[1] = molecular target: DNA repair and recombination protein RAD54-like (Homo sapiens, UniProt Q92698); test: RAD54 Holliday junction migration blockers – biochemical, fluorescence, cherry-picked samples, dose series, confirmation (AID 651657); format: functional
[2] = molecular target: Ras and Rab interactor 1/Tyrosine-protein kinase ABL1 (Homo sapiens, UniProt P00519+Q13671); format: functional;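 also: biochemical TR-FRET dose-response test measuring inhibition of binding between Rin1 and Abl proteins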
[3] = Luminescence Cell-Based Dose Confirmation HTS to Identify Activators of 5'UTR Stem-Loop Driven Alpha-Synuclein mRNA Translation in H4 Neuroglioblastoma Cells. [Related pubchem assays: 1829 (Project Summary), 1814 (Primary HTS)]; format: functional
[4] = Luminescence Cell-Based Dose Response HTS to Identify Activators of Luciferase Translation or Activity in H4 […] Cells. [Related pubchem assays: 1829 (Project Summary), 1814 (Primary HTS)]; format: functional
H4 = test: Luminescence Cell-Based Dose Response HTS to Identify Activators of 5'UTR Stem-Loop Driven Prion Protein mRNA Translation in H4 Neuroglioblastoma Cells. [Related pubchem assays: 1829 (Project Summary), 1814 (Primary HTS)]; format: functional; settings: Homo sapiens
[5] = Vero cell cytotoxicity, cytotoxicity control for M. tuberculosis inhibitor project, purified and synthesized samples, set 3 (AID 504684); format: functional
[6] = inhibition of ARNT PAS-B/TACC3 complex formation – biochemical, AlphaScreen, cherry-picked samples, confirmation (AID 651703); format: functional, Homo sapiens;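 also: His-tagged ARNT PAS-B domain paired with GST-TACC3 E629A dimer coactivator fragment; potency of inhibitors that break up the complex and lower AlphaScreen signal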
[7] = molecular target: Potassium voltage-gated channel subfamily KQT member 2 (Rattus norvegicus, UniProt O88943); test: blockers of KCNQ2 channel current – cell-based, automated electrophysiology, set II, rat KCNQ2, dose response (AID 588637); format: functional
Chain of Potassium voltage-gated channel subfamily KQT member 2 (O88943 whole entry, the tested form may be a part): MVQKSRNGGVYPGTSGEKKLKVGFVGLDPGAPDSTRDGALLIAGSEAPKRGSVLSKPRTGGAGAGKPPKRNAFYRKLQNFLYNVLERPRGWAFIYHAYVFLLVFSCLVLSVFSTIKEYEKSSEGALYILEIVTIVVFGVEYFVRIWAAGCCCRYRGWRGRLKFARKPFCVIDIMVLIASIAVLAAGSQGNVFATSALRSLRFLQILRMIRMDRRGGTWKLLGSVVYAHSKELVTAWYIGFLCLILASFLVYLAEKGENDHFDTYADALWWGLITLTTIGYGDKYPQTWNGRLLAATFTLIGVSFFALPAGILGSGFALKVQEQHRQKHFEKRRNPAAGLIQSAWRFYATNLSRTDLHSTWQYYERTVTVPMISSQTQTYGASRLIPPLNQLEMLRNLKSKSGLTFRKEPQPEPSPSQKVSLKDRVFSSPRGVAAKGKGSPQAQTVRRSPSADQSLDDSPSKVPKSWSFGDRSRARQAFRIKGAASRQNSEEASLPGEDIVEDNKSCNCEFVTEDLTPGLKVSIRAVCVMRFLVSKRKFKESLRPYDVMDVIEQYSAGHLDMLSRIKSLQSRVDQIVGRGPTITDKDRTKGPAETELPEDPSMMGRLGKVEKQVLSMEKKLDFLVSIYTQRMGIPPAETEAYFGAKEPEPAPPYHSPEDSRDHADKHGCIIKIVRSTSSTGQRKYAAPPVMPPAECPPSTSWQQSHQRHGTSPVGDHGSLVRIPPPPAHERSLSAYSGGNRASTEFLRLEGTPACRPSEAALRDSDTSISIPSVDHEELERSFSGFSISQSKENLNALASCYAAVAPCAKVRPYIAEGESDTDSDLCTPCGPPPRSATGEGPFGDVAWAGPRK

[8] = molecular target: T1, RNA-binding protein pos-1 (Caenorhabditis elegans, UniProt G5EF15); test: disruptors of C. elegans POS-1 RNA interaction – biochemical, fluorescence polarization, dose response (AID 1964);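 also: purified POS-1 fused to maltose binding protein made in E. coli; potency of compounds blocking POS-1 binding to fluorescent RNA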
T1 sequence (G5EF15 whole entry): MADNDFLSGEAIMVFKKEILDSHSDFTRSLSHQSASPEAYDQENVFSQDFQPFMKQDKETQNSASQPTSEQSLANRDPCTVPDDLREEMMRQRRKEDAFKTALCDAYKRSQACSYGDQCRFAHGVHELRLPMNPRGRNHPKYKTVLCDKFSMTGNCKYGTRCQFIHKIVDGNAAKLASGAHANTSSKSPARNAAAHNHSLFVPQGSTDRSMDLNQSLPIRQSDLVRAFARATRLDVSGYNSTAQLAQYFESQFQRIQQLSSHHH

[9] = molecular target: T2, Zinc finger protein mex-5 (Caenorhabditis elegans, UniProt Q9XUB2); test: potency of MEX-5 RNA-binding blockers – biochemical, C. elegans, fluorescence polarization, dose response (AID 1960)
T2 sequence (Q9XUB2 whole entry): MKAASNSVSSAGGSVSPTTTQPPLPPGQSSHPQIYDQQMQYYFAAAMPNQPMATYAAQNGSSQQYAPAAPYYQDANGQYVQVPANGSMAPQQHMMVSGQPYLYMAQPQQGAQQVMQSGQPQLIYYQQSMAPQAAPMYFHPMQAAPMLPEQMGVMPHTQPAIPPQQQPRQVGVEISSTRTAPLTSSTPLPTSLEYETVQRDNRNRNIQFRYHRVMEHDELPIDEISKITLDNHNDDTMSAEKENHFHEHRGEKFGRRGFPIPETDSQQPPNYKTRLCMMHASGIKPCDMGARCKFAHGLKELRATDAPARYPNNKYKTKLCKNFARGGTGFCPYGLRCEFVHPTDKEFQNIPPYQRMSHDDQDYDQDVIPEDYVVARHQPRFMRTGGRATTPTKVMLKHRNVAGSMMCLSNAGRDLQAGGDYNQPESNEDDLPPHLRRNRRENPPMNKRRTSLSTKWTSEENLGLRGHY

Genome polyprotein = Genome polyprotein (dengue virus type 2, UniProt P29990); test: flavivirus cap methylation enzyme inhibition – biochemical, confirmation dose response, primary screen (AID 588689); format: functional
[10] = molecular target: T3, Carboxy-terminal domain RNA polymerase II polypeptide A small phosphatase 1 (Homo sapiens, UniProt Q9GZU7); test: CTDSP1 inhibitors, concentration-response, biochemical, absorbance readout, ultra-high-throughput screen actives (AID 540297); format: functional
T3 sequence (Q9GZU7 whole entry): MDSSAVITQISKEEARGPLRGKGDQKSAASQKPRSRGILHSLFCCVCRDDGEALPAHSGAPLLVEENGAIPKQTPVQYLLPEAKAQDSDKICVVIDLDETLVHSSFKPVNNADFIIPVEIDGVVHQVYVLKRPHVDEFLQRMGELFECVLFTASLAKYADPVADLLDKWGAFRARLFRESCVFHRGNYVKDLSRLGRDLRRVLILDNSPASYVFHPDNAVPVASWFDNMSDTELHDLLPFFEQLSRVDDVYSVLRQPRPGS

[11] = molecular target: DNA (cytosine-5)-methyltransferase 1 (Homo sapiens, UniProt P26358); test: inhibition of DNA methylation by DNMT1 – biochemical, fluorescent molecular beacon, confirmation (AID 602386); format: functional
Chain of DNA (cytosine-5)-methyltransferase 1 (P26358 whole entry): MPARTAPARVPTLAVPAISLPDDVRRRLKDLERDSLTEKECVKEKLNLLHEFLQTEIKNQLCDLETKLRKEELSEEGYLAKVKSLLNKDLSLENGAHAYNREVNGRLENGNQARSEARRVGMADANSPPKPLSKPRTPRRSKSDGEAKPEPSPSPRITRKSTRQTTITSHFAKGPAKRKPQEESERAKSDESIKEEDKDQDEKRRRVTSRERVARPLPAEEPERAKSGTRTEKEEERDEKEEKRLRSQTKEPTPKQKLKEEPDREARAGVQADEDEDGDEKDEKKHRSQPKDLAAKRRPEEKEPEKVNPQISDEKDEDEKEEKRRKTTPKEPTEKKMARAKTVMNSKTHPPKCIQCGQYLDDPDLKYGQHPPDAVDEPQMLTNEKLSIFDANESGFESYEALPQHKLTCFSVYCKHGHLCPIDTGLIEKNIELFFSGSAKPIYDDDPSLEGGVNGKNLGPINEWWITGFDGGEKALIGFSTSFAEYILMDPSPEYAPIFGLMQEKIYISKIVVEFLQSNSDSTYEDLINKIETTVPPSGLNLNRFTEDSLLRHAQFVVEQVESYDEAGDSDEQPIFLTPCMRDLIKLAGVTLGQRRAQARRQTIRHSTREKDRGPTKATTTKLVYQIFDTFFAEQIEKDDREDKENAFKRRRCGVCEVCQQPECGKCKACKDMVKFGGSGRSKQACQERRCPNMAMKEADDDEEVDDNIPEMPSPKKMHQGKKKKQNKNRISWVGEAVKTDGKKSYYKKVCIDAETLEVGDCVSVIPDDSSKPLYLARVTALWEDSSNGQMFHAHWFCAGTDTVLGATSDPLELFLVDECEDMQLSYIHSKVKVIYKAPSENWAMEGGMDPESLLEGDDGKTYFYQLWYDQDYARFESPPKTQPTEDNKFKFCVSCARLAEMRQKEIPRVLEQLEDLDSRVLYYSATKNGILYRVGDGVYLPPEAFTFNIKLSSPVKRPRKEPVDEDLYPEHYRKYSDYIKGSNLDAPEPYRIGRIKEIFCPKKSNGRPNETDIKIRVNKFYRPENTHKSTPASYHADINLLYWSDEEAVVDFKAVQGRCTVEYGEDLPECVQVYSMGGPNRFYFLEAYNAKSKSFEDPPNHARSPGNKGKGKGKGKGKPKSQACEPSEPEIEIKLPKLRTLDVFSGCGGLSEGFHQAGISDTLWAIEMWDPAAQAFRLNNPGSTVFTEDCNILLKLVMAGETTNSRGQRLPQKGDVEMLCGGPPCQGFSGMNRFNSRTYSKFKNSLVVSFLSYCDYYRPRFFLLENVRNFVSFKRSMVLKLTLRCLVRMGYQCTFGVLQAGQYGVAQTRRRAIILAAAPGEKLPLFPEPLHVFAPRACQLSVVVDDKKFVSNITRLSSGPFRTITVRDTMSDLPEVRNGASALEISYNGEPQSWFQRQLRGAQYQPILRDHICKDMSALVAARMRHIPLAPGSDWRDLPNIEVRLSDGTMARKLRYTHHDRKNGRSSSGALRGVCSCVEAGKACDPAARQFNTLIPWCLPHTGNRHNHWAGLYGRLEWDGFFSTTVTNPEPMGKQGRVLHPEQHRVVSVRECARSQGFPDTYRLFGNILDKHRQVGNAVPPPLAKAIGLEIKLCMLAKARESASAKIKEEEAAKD

[12] = molecular target: Histone-lysine N-methyltransferase NSD2 (Homo sapiens, UniProt O96028); format: biochemical
Chain of Histone-lysine N-methyltransferase NSD2 (O96028 whole entry): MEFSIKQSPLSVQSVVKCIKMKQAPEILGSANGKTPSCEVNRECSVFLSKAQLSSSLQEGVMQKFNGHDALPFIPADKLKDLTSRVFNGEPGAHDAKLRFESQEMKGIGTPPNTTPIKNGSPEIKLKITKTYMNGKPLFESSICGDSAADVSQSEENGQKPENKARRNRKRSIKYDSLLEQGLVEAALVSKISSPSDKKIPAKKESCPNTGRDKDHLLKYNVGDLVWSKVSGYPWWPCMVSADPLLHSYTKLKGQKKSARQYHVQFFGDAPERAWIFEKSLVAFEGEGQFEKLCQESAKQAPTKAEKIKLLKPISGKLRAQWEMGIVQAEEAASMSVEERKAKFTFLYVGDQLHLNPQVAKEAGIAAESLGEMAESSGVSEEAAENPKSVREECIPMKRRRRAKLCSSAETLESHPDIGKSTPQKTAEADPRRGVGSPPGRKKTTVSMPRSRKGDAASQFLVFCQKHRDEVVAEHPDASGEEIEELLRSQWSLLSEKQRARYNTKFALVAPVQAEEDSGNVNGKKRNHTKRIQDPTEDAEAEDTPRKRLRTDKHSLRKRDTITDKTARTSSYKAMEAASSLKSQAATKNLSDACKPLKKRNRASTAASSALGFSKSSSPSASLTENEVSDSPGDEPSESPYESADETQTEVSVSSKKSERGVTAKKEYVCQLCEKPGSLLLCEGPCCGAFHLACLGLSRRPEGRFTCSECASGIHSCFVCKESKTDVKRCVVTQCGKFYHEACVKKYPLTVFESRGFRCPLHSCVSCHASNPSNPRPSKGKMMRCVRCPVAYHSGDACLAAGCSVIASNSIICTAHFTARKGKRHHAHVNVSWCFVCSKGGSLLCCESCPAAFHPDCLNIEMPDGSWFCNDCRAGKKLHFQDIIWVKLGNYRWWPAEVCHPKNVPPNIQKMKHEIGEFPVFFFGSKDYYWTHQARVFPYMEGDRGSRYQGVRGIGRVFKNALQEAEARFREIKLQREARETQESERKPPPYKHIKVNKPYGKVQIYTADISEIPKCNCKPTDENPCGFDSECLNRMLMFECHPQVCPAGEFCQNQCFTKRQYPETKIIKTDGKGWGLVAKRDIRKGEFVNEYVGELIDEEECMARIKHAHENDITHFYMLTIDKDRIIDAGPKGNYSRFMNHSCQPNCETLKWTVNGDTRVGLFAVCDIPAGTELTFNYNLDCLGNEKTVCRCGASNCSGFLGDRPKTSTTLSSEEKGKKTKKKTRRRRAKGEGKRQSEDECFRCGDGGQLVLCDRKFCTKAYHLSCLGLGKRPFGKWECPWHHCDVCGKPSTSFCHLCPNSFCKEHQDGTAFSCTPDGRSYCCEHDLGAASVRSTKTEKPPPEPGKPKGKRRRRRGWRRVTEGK

[13] = reduction of Shn3 3'UTR-driven luciferase in osteoblasts – cell-based, Clone20 osteoblasts, firefly luciferase, cherry-picked, dose response (AID 624132); format: functional;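 also: firefly luciferase luminescence from reporter carrying the Shn3 3'UTR in osteoblasts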
[14] = loss of viability in HepG2 cells – cell-based, CellTiter-Glo, cherry-picked, cytotoxicity control for Shn3 inhibitor project, dose response (AID 624134); format: functional
[15] = non-specific 3'UTR reporter inhibition in Clone20-Shn3RL – cell-based, Renilla luciferase, cherry-picked, counter-screen for Shn3 inhibitor project, dose response (AID 624133); format: functional
Protein Wnt-3a = Protein Wnt-3a (Mus musculus, UniProt P27467); test: antagonism of Wnt3a pathway luciferase reporter – Wnt-LIGHT cells, luminescence, selectivity assay for Gli-SUFU antagonist project, dose response (AID 651570); format: functional; settings: read-out: IC50_Mean;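 also: Wnt-LIGHT reporter cells stimulated with conditioned medium from Wnt3a-producing cells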
Chain of Protein Wnt-3a (P27467 whole entry): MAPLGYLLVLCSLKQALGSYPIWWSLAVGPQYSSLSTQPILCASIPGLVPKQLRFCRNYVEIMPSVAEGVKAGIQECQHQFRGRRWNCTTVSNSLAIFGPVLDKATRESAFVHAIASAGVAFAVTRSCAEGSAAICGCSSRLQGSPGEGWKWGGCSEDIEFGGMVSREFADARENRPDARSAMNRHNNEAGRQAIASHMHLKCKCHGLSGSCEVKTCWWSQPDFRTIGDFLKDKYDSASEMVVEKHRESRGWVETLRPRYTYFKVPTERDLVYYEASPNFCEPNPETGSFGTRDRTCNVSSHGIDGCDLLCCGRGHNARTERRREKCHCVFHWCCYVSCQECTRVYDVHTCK

[16] = molecular target: Melanin-concentrating hormone receptor 1 (Homo sapiens, UniProt Q99705); test: Late-stage fluorescence-based counterscreen for antagonists of the G-protein coupled receptor 7 (GPR7): cell-based dose response assay to identify antagonists of the melanin-concentrating hormone receptor 1 (MCHR1) Set 6.; format: functional
Chain of Melanin-concentrating hormone receptor 1 (Q99705 whole entry): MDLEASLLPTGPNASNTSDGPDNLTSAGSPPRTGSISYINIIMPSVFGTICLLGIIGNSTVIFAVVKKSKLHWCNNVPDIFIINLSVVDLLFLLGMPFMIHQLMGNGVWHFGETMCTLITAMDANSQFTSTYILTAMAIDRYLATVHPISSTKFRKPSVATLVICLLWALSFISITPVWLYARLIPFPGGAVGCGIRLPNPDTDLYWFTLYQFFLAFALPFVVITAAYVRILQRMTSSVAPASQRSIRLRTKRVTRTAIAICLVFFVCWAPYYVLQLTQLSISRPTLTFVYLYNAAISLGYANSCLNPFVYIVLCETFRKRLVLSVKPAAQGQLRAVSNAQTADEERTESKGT

[17] = molecular target: T4, Neuropeptides B/W receptor type 1 (Homo sapiens, UniProt P48145); test: human NPBW1 receptor blockade, IC50 – cell-based, fluorescence, dose response, set 6, late-stage follow-up (AID 588583); format: functional
T4 sequence (P48145 whole entry): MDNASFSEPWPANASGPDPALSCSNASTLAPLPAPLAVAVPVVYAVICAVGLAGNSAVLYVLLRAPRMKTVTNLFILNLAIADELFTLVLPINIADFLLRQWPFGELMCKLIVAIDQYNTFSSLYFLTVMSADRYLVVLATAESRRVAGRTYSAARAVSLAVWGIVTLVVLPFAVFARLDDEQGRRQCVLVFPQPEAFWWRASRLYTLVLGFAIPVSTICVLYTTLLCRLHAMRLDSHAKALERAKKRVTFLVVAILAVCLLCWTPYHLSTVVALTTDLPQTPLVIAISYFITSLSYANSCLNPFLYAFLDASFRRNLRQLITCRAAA

Melanocortin receptor 4 = Melanocortin receptor 4 (Homo sapiens, UniProt P32245); format: functional, cell-based;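 also: Cell-based assay with luminescence read-out, confirmatory dose-response testing for agonist activity of biased ligands at MC4R; human U2OS cells with tagged receptor and beta-arrestin; potency of agonists that increase receptor coupling to beta-arrestin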
Chain of Melanocortin receptor 4 (P32245 whole entry, the tested form may be a part): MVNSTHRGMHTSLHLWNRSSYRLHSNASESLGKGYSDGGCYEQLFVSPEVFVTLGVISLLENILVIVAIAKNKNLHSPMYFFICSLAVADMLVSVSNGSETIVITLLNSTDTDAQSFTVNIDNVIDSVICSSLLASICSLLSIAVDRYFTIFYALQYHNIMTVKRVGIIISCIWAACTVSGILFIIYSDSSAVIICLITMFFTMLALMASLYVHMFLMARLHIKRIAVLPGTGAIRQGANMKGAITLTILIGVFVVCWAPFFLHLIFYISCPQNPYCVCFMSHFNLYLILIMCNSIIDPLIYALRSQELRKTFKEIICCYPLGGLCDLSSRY

[18] = molecular target: T5, Sentrin-specific protease 1 (Homo sapiens, UniProt Q9P0U3); test: SENP1 catalytic domain blockers, concentration series – biochemical, kinetic FRET, dose response (AID 651697); format: functional; settings: read-out: IC50_Mean
T5 sequence (Q9P0U3 whole entry): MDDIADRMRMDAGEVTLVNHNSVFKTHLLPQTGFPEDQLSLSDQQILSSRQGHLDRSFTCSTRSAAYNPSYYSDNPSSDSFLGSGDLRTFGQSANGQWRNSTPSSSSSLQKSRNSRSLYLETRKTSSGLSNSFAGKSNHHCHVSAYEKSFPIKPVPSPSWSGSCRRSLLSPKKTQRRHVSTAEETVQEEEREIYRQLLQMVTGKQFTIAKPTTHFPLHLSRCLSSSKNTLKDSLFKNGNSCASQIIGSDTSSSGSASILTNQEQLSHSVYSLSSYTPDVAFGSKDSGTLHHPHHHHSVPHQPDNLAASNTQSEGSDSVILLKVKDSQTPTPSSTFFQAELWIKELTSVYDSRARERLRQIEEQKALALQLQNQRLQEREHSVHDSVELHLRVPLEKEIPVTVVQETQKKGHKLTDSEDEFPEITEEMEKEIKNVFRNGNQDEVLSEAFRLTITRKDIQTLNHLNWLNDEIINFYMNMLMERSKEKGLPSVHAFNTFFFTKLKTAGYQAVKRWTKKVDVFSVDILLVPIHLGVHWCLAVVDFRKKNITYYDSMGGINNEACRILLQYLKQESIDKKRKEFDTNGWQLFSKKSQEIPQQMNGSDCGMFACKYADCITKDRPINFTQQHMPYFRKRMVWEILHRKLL

[19] = molecular target: T5, Sentrin-specific protease 1; test: Dose response confirmation of small molecule inhibitors of the catalytic domain of the SUMO protease, SENP1 in a FRET assay.; format: functional; settings: read-out: IC50_Mean

In the case of Cn1c(C(=O)NCCN2CCCCCC2)cc2c(=O)n(C)c3ccccc3c21, the AC50 [1] is reported as 25.3 µM (active).
With Oc1ncnc2c1C(c1ccccc1)c1c(O)ncnc1O2 the IC50 [2] was 32 µM (inactive).
With CCc1ccc(/C=C2/C(=O)N(C)C(=S)N2CC(=O)OC)s1 the EC50 [3] was 16.6 µM (active), the EC50 [4] was > 120 µM (not active) and the EC50 (H4) was > 120 µM (not active). For the same molecule, the CC50 [5] was > 100 µM (active).
For N#C[C@@H]1[C@@H](c2ccc(-c3ccc(F)cc3)cc2)[C@H](CO)N1c1nc(-c2ccccc2)cs1, the AC50 [6] was 84.2 µM (active).
With COCCNC(C(=O)Nc1cc(Cl)cc(Cl)c1)c1ccccc1 (stereo not drawn) the IC50 [7] was 16.1 µM (active).
For Cc1cc(/C=C2\C(=O)NC(=O)N(c3ccccc3F)C2=O)c(C)n1-c1cc(C(=O)O)cc(C(=O)O)c1, the EC50 [8] was > 300 µM (not active), the EC50 [9] was > 300 µM (not active) and the IC50 (Genome polyprotein) was 63.6 µM (active). For the same molecule, the IC50 [10] was 1.55 µM (active), the IC50 [11] was 10.7 µM (active) and the AC50 [12] was > 20 µM (inactive).
In the case of CCCCN(C(C)=O)c1ccc2c(c1)C1CC2CCN1C(=O)OCc1ccccc1 (stereo not drawn), the AC50 [13] is reported as 1.37 µM (active), the AC50 [14] is reported as 66.9 µM (active) and the AC50 [15] is reported as 4.4 µM (active). The IC50 (Protein Wnt-3a) was 3.72 µM (active).
In the case of N#CC(c1nc2ccccc2s1)c1c(Cl)cnn(Cc2cccc3ccccc23)c1=O (stereo not drawn), the IC50 [16] is reported as 186 nM (active) and the IC50 [17] is reported as 186 nM (active).
In the case of CC(=O)c1cccc(-c2cnc3c(NC=O)cc(-c4ccc(N(C)C)cc4)cn23)c1, the EC50 (Melanocortin receptor 4) is reported as > 89.2 µM (inactive), the IC50 [18] is reported as 9.66 µM (active) and the IC50 [19] is reported as 11.2 µM (active).
